Data: ChEMBL document CHEMBL1126241, “Synthesis, characterization, and Ca2+ antagonistic activity of diltiazem metabolites” (J Med Chem, 1992)

Test system: Cricetinae gen. sp.
Assay: Concentration (10 e-6 M) required to block [Ca2+]-induced contraction of K+-depolarized hamster aorta
Assay type: functional

| SMILES | IC50 [µM] |
| --- | --- |
| CN(C)CCN1C(=O)C(O)C(c2ccc(O)cc2)Sc2ccccc21 (configuration not stated) | 45.5 |
| CNCCN1C(=O)C(OC(C)=O)C(c2ccc(OC)cc2)Sc2ccccc21 (configuration not stated) | 3.27 |
| CNCCN1C(=O)C(O)C(c2ccc(O)cc2)Sc2ccccc21 (configuration not stated) | 127 |
| CNCCN1C(=O)C(OC(C)=O)C(c2ccc(O)cc2)Sc2ccccc21 (configuration not stated) | 112 |
| COc1ccc([C@@H]2Sc3ccccc3N(CCN(C)C)C(=O)[C@@H]2OC(C)=O)cc1 [DILTIAZEM] | 0.98 |
| CC(=O)OC1C(=O)N(CCN(C)C)c2ccccc2SC1c1ccc(O)cc1 (configuration not stated) | 40.4 |
| CNCCN1C(=O)C(O)C(c2ccc(OC)cc2)Sc2ccccc21 (configuration not stated) | 20.2 |
